According to ChEMBL document CHEMBL1201862, “PubChem BioAssay data set” (2004):
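Where inhibition never reached the appropriate level, the endpoint shown equals the highest concentration tested. Otherwise, values were interpolated linearly from a five-concentration, 48-hour dose response in 96-well plates. GI50: concentration for 50% inhibition of growth.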 Active and inactive are the calls of the source. Cut-off read from the data, not from the text of the source: active = GI50 up to about 1.1 µM and inactive = higher.

Columns and labels:
Assay in all cases: inhibition of tumour cell growth, NCI panel, 48 h
CAKI-1 = system: CAKI-1
SNB-19 = system: SNB-19
OVCAR-5 = system: OVCAR-5
M14 = system: M14
UO-31 = system: UO-31
SF-539 = system: SF-539
HCT-116 = system: HCT-116
BT-549 = system: BT-549
SNB-75 = system: SNB-75

Measured: GI50

COc1cccc2c1[C@H](OC)[C@]13O[C@@]1(C2=O)[C@H](O)[C@H](C)[C@@](O)(C(=O)[C@@H]1O[C@H]1C)[C@@H]3O
active: CAKI-1 273 nM | SNB-19 286 nM | OVCAR-5 297 nM | M14 221 nM | UO-31 249 nM | SF-539 271 nM | HCT-116 318 nM | BT-549 289 nM | SNB-75 233 nM
